Measured values from the supplement of paper PMC10883282.
Where a name gives a salt, the structure may show the parent alone. ± gives the standard deviation of the averaged measurements.

Test system: SW1353
Assay: relative viability vs DMSO control (72 h) (fraction); higher = more viable cells
In short: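 Sarcoma cell lines were grown in 384-well plates seeded toward 80–90% confluence and exposed 24 h later to serially diluted compound. After 72 h at 37 °C and 5% CO2, with 0.1% DMSO vehicle and a 5 µM positive control on the plates, ATPLite was read. Relative viability, given as percent growth averaged over up to triplicate wells, was rescaled so that 1 is full and 0 is none.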

Row | SMILES | relative viability (0.00017 µM) | relative viability (0.00051 µM) | relative viability (0.00152 µM) | relative viability (0.00457 µM) | relative viability (0.01372 µM) | relative viability (0.04115 µM) | relative viability (0.1235 µM) | relative viability (0.3704 µM) | relative viability (1.111 µM) | relative viability (3.333 µM) | relative viability (10 µM)
1 | CC[C@H](Nc1ncnc2[nH]cnc12)c1nc2cccc(F)c2c(=O)n1-c1ccccc1 [Idelalisib] | 1.06 ± 0.038 | 1.05 ± 0.053 | 1.04 ± 0.048 | 1.05 ± 0.02 | 1.01 ± 0.043 | 0.969 ± 0.016 | 0.952 ± 0.045 | 0.931 ± 0.043 | 0.831 ± 0.042 | 0.752 ± 0.011 | 0.573 ± 0.027
2 | CC(C)(C)c1cc(NC(=O)Nc2ccc(-c3cn4c(n3)sc3cc(OCCN5CCOCC5)ccc34)cc2)no1 [Quizartinib] | 1.02 ± 0.03 | 1.02 ± 0.047 | 1.02 ± 0.057 | 1.03 ± 0.047 | 1.01 ± 0.059 | 1.03 ± 0.043 | 1.02 ± 0.046 | 1.01 ± 0.031 | 0.965 ± 0.044 | 0.874 ± 0.02 | 0.981 ± 0.035
3 | CNC(=O)c1cc(Oc2ccc(NC(=O)Nc3ccc(Cl)c(C(F)(F)F)c3)c(F)c2)ccn1 [Regorafenib] | 1.11 ± 0.029 | 1.05 ± 0.05 | 1.07 ± 0.017 | 1.08 ± 0.021 | 1.04 ± 0.096 | 1.01 ± 0.043 | 1.08 ± 0.044 | 0.996 ± 0.07 | 0.978 ± 0.047 | 0.919 ± 0.036 | 0.555 ± 0.02
4 | CNC(=O)c1ccc(-c2cnc3ncc(Cc4ccc5ncccc5c4)n3n2)cc1F [Capmatinib] | 0.958 ± 0.038 | 0.979 ± 0.033 | 0.973 ± 0.029 | 0.986 ± 0.063 | 0.974 ± 0.019 | 0.964 ± 0.049 | 1.01 ± 0.036 | 0.98 ± 0.044 | 1.05 ± 0.025 | 1.07 ± 0.011 | 1.03 ± 0.018
5 | COc1cccc2c1C(=O)c1c(O)c3c(c(O)c1C2=O)C[C@@](O)(C(=O)CO)C[C@@H]3O[C@H]1C[C@H](N)[C@H](O)[C@H](C)O1 [Doxorubicin Hydrochloride] | 0.948 ± 0.043 | 0.971 ± 0.029 | 0.958 ± 0.022 | 0.949 ± 0.013 | 0.882 ± 0.043 | 0.81 ± 0.013 | 0.661 ± 0.029 | 0.376 ± 0.017 | 0.162 ± 0.0035 | 0.181 ± 0.011 | 0.115 ± 0.0047
6 | CO[C@H]1C[C@@H]2CC[C@@H](C)[C@@](O)(O2)C(=O)C(=O)N2CCCC[C@H]2C(=O)O[C@H]([C@H](C)C[C@@H]2CC[C@@H](OP(C)(C)=O)[C@H](OC)C2)CC(=O)[C@H](C)/C=C(\C)[C@@H](O)[C@@H](OC)C(=O)[C@H](C)C[C@H](C)/C=C/C=C/C=C/1C [Ridaforolimus] | 0.961 ± 0.028 | 0.905 ± 0.041 | 0.805 ± 0.012 | 0.771 ± 0.011 | 0.747 ± 0.029 | 0.742 ± 0.033 | 0.723 ± 0.016 | 0.72 ± 0.035 | 0.702 ± 0.012 | 0.707 ± 0.012 | 0.682 ± 0.023
7 | Cc1cc(C)c(/C=C2\C(=O)Nc3ccccc32)[nH]1 [Semaxanib] | 0.919 ± 0.019 | 0.8637 ± 0.004 | 0.898 ± 0.032 | 0.897 ± 0.043 | 0.865 ± 0.022 | 0.895 ± 0.052 | 0.892 ± 0.016 | 0.886 ± 0.017 | 0.872 ± 0.04 | 0.818 ± 0.022 | 0.788 ± 0.032
8 | CN1CCC(COc2cnc(-c3cccc(Cn4nc(-c5cccc(C#N)c5)ccc4=O)c3)nc2)CC1 [Tepotinib] | 1.025 ± 0.0083 | 1.02 ± 0.015 | 1.01 ± 0.021 | 1.01 ± 0.018 | 0.984 ± 0.028 | 0.988 ± 0.035 | 0.951 ± 0.029 | 0.976 ± 0.039 | 0.93 ± 0.046 | 0.977 ± 0.027 | 0.573 ± 0.17
9 | COc1cc2c(Oc3ccc4[nH]c(C)cc4c3F)ncnc2cc1OCCCN1CCCC1 [Cediranib] | 0.971 ± 0.026 | 0.993 ± 0.025 | 1.004 ± 0.0039 | 0.999 ± 0.024 | 0.954 ± 0.011 | 0.949 ± 0.016 | 0.908 ± 0.013 | 0.848 ± 0.035 | 0.79 ± 0.034 | 0.751 ± 0.11 | 0.0589 ± 0.0064
10 | C[C@@H](c1ccc2nccn2c1)n1nnc2ncc(-c3cnn(C)c3)nc21 [Volitinib] | 1.01 ± 0.033 | 1.01 ± 0.011 | 0.998 ± 0.028 | 1.02 ± 0.019 | 1.02 ± 0.044 | 1 ± 0.048 | 1.01 ± 0.045 | 0.976 ± 0.026 | 1.03 ± 0.016 | 0.987 ± 0.035 | 1.02 ± 0.023
11 | CC1(C)CNc2cc(NC(=O)c3cccnc3NCc3ccncc3)ccc21 [Motesanib] | 0.993 ± 0.037 | 1.01 ± 0.013 | 1.02 ± 0.011 | 1 ± 0.018 | 0.997 ± 0.03 | 1.01 ± 0.012 | 0.963 ± 0.031 | 0.964 ± 0.016 | 0.977 ± 0.025 | 0.935 ± 0.023 | 0.898 ± 0.025
12 | N#CC[C@H](C1CCCC1)n1cc(-c2ncnc3[nH]ccc23)cn1 [Ruxolitinib] | 1.049 ± 0.0061 | 1.1 ± 0.052 | 1.1 ± 0.027 | 1.09 ± 0.029 | 1.09 ± 0.029 | 1.09 ± 0.014 | 1.05 ± 0.021 | 1.04 ± 0.011 | 1.03 ± 0.038 | 1.02 ± 0.033 | 0.807 ± 0.012
13 | Cc1nc(NC(=O)N2CCC[C@H]2C(N)=O)sc1-c1ccnc(C(C)(C)C(F)(F)F)c1 [Alpelisib] | 1.02 ± 0.034 | 1 ± 0.024 | 1.01 ± 0.011 | 0.973 ± 0.028 | 0.977 ± 0.072 | 0.902 ± 0.027 | 0.9309 ± 0.0035 | 0.903 ± 0.039 | 0.819 ± 0.061 | 0.731 ± 0.024 | 0.594 ± 0.037
14 | CN1CCN(c2ccc3nc(-c4c(N)c5c(F)cccc5[nH]c4=O)[nH]c3c2)CC1 [Dovitinib] | 1.08 ± 0.036 | 1.09 ± 0.015 | 1.04 ± 0.04 | 1.07 ± 0.019 | 1.06 ± 0.014 | 1.01 ± 0.03 | 1.01 ± 0.048 | 0.959 ± 0.036 | 0.749 ± 0.017 | 0.53 ± 0.043 | 0.06 ± 0.0053
